The text below walks through data of article PMC11794154, “Molecular basis for the diversification of lincosamide biosynthesis by pyridoxal phosphate-dependent enzymes” (Nature Chemistry, 2024).

The target in one assay is T1, CcbF (Streptomyces caelestis, UniProt E9JES7).
T1 construct: full-length gene in pET42b (NdeI/XhoI), C-terminal His8 tag, expressed in E. coli BLR(DE3)/pGro7; catalytic Lys260; printed ccbF forward primer is identical to the lmbF one (likely misprint)
Put plainly: X-ray crystal structure, […] Å. Format: binding. The note with it: covalent; internal aldimine with Lys260.

A further assay addresses T2, LmbF (Streptomyces lincolnensis, UniProt A9Y8R7).
T2 construct: full-length gene in pET42b (NdeI/XhoI), C-terminal His8 tag, expressed in E. coli BLR(DE3)/pGro7; active site at dimer interface; catalytic Lys270
Put plainly: X-ray crystal structure, […] Å. Format: binding. The note with it: covalent; internal aldimine with Lys270.

Structures are written as SMILES.

T1 sequence (E9JES7 entry or part of it): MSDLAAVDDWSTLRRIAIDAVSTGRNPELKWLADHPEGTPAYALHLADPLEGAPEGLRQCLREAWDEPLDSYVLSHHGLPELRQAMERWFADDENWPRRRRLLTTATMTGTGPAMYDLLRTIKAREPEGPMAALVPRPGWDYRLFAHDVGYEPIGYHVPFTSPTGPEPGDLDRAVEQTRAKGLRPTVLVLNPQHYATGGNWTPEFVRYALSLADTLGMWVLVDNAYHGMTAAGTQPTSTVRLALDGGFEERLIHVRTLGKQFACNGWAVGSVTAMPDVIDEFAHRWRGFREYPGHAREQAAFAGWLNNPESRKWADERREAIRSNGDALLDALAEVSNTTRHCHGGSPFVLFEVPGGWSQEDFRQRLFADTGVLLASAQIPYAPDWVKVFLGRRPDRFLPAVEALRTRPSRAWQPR
T2 sequence (A9Y8R7 entry or part of it): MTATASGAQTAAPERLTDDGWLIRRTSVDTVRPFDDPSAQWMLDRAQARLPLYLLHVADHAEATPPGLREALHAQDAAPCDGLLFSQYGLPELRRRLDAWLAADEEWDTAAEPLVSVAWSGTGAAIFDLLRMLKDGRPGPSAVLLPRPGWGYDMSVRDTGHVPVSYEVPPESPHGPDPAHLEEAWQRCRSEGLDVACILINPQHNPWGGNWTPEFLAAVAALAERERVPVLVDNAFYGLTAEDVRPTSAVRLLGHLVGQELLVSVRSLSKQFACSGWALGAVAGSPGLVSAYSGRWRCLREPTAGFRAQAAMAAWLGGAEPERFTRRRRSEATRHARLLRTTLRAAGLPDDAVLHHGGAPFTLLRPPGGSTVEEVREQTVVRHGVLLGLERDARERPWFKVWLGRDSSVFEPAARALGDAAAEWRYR

As to `Cc1ncc(COP(=O)(O)O)c(C=O)c1O` [PLP], the “X-ray crystal structure, 1.8 Å” value on CcbF is “we solved the X-ray crystal structures of LmbF and CcbF with PLP”. For the same molecule, the “X-ray crystal structure, 1.7 Å” value on LmbF is “we solved the X-ray crystal structures of LmbF and CcbF with PLP”.
